Data as given in publication PMC6683117 (2019).

Test system: KRAS G12D mutated nucleotide (GAT), biotinylated hairpin (DNA, hairpin) TACATCTGATGGCGTATTAAGTTTTCTTAATACGCCATCAGATGTA
Experiment: SPR (Biacore X100), kinetic kd/ka
Details: 150 mM NaCl; HBS-EP (10 mM HEPES, 3 mM EDTA, 0.005% P20), 0.1% DMSO, pH 7.4, 25 °C; printed ka, kd give 3.04 × 10^-8

A KD of 0.304 µM was found for CN(C)CCCNC(=O)CCNC(=O)c1cc(NC(=O)c2nc(NC(=O)c3nc(NC(=O)CCNC(=O)c4cc(NC(=O)c5nc(NC(=O)CCCNC(=O)c6cc(NC(=O)c7cc(NC(=O)c8cc(NC(=O)CCNC(=O)c9cc(NC(=O)c%10nc(NC(=O)CCNC(=O)CCCC[C@@H]%11SC[C@@H]%12NC(=O)NC%12%11)cn%10C)cn9C)cn8C)cn7C)cn6C)cn5C)cn4C)cn3C)cn2C)cn1C (stereo partly shown) in this work.
